Among the test systems are M19-MEL melanoma; HCT-15 colon; LXFL 529 NSCLC; HL-60(TB) leukemia; KM20L2 colon; DMS 273 small cell lung; DLD-1 colon; NCI-H23 lung; SNB-78 CNS.
Experiment in all cases: NCI tumour cell line growth inhibition, 48 h

Where “and” joins values, the source holds several entries; their conditions need not be identical. Equal entries are not always repeated.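 96-well plates; 48 h exposure; 5 concentrations. Endpoints by linear interpolation between flanking doses. Not reached: highest tested concentration assigned. GI50: concentration for 50% inhibition of growth. Definition used: TGI = concentration required for complete inhibition of growth.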

As for `CS(=O)(=O)N(CCC#N)c1ccc(C=O)cc1`, the TGI in the assay with M19-MEL melanoma, in the assay with HCT-15 colon, in the assay with LXFL 529 NSCLC, in the assay on HL-60(TB) leukemia, in the assay with KM20L2 colon and in the assay on DMS 273 small cell lung was > 100 µM in each case.

As to `O=C(NC1C2CC3CC(C2)CC1C3)/C(Cl)=C1/Sc2ccccc2NC1=O` (stereo not drawn), the TGI in the assay on M19-MEL melanoma, in the assay on DLD-1 colon, in the assay on HCT-15 colon, with NCI-H23 lung, with SNB-78 CNS and in the assay with LXFL 529 NSCLC was > 100 µM in each case. Also, the TGI in the assay with HL-60(TB) leukemia, in the assay on KM20L2 colon and in the assay with DMS 273 small cell lung was > 100 µM each time.

Take `CC1CCCc2c1c1ccc3c(O)cccc3c1oc2=O` (stereo not drawn): the TGI with M19-MEL melanoma, in the assay with DLD-1 colon, in the assay on HCT-15 colon, with NCI-H23 lung, in the assay on SNB-78 CNS and in the assay on LXFL 529 NSCLC was > 100 µM in each case. The TGI in the assay with HL-60(TB) leukemia, with KM20L2 colon and with DMS 273 small cell lung was > 100 µM in each case.

Take `O=c1cccccc1[O-].O=c1cccccc1[O-].O=c1cccccc1[O-].[Ce+3]`: the GI50 is 16.7 µM with DLD-1 colon, 15.4 µM in the assay on SNB-78 CNS, 24.1 µM in the assay with KM20L2 colon and 11.4 µM with DMS 273 small cell lung. Further, the TGI is > 100 µM with DLD-1 colon; > 100 µM in the assay with HCT-15 colon; 86.1 µM in the assay on NCI-H23 lung; 63.2 µM in the assay on SNB-78 CNS; 89 µM in the assay with HL-60(TB) leukemia; > 100 µM with KM20L2 colon. Moreover, in the assay on DMS 273 small cell lung, the TGI is > 100 µM.

As to `COc1ccc2c(CCNC(=O)/C=C/c3ccccc3)c(C(C)=O)[nH]c2c1[N+](=O)[O-]`, the TGI in the assay on HCT-15 colon was > 100 µM; in the assay on NCI-H23 lung it was 58 µM; in the assay on SNB-78 CNS it was > 100 µM; in the assay with LXFL 529 NSCLC it was > 100 µM; in the assay with HL-60(TB) leukemia it was > 100 µM; in the assay on KM20L2 colon it was > 100 µM. The compound also returned a TGI in the assay on DMS 273 small cell lung of 29.2 µM.

Consider `CCOC(=O)N1C(c2ccccc2)C=CC(c2ccccc2)N1C(=O)OCC` (stereo not drawn), for which the TGI in the assay with M19-MEL melanoma, in the assay on DLD-1 colon, in the assay with HCT-15 colon, in the assay on NCI-H23 lung, in the assay with SNB-78 CNS and in the assay on KM20L2 colon was > 100 µM in each case.

For the compound `Cc1ccccc1C(=O)Oc1ccc(OCc2ccccc2)cc1`, the TGI in the assay on M19-MEL melanoma, with DLD-1 colon, in the assay on HCT-15 colon, in the assay on NCI-H23 lung, in the assay on SNB-78 CNS and in the assay on LXFL 529 NSCLC was > 100 µM in each case. Besides, the TGI in the assay on HL-60(TB) leukemia, in the assay on KM20L2 colon and with DMS 273 small cell lung was > 100 µM each time.

Consider `Cn1c(=O)c(C(=O)NC(=O)NCCCCCOC(=O)CCCCCCCCCCC(=O)OCCCCCNC(=O)NC(=O)c2cn(Cc3ccccc3)c(=O)n(C)c2=O)cn(Cc2ccccc2)c1=O`, for which the TGI with M19-MEL melanoma, with DLD-1 colon, in the assay with HCT-15 colon, in the assay on NCI-H23 lung, in the assay with SNB-78 CNS and in the assay on LXFL 529 NSCLC was > 100 µM in each case. Further, the TGI in the assay with HL-60(TB) leukemia, with KM20L2 colon and in the assay with DMS 273 small cell lung was > 100 µM in each case.

On to `CC(=O)OC1CCC2C(=CCC3C2(C)C(=O)CC2(C)C(C4(C)OC(C(C)C)=CC4=O)C(O)CC32C)C1(C)C` (stereo not drawn), for which the TGI in the assay with M19-MEL melanoma is 47.7 µM; with DLD-1 colon, > 100 µM; in the assay on HCT-15 colon, > 100 µM; in the assay on NCI-H23 lung it was > 100 µM; in the assay on SNB-78 CNS, > 100 µM; in the assay with LXFL 529 NSCLC it was 92.1 µM. Besides, the TGI came out at 51.4 µM with KM20L2 colon and 58.3 µM in the assay on DMS 273 small cell lung.

As to `Cn1ccnc1CCc1ccc(Cl)c(Cl)c1`, the TGI with M19-MEL melanoma, in the assay on DLD-1 colon, in the assay on HCT-15 colon, in the assay with NCI-H23 lung, in the assay with SNB-78 CNS and in the assay with LXFL 529 NSCLC was > 100 µM in each case. The TGI in the assay with HL-60(TB) leukemia, in the assay on KM20L2 colon and in the assay with DMS 273 small cell lung was > 100 µM throughout.

As to `Cc1ccc(C=NC23CC4CC(CC(C4)C2)C3)cc1`, the TGI in the assay with M19-MEL melanoma, in the assay on HCT-15 colon, with NCI-H23 lung, in the assay on SNB-78 CNS, in the assay with HL-60(TB) leukemia and in the assay with KM20L2 colon was > 100 µM in each case. Besides, in the assay on DMS 273 small cell lung, the TGI was > 100 µM.

Regarding `CC(C)CC12CC3CCC(CNC1=O)C32C` (stereo not drawn), the TGI with M19-MEL melanoma, in the assay with DLD-1 colon, with NCI-H23 lung, in the assay with SNB-78 CNS, in the assay with LXFL 529 NSCLC and with HL-60(TB) leukemia was > 100 µM throughout. Moreover, in the assay with DMS 273 small cell lung, the TGI was > 100 µM.

As to `CCOC(=O)C1=C(Nc2ccc(Br)cc2)OC/C1=N\NC(=O)c1ccccc1O`, the TGI was > 100 µM with M19-MEL melanoma; 97.3 µM in the assay on DLD-1 colon; > 65.3 µM in the assay with HCT-15 colon; 33.1 µM with NCI-H23 lung; > 79.7 µM in the assay on SNB-78 CNS; > 100 µM in the assay on LXFL 529 NSCLC. Also, the figures for the TGI in the assay on HL-60(TB) leukemia, in the assay on KM20L2 colon and in the assay on DMS 273 small cell lung were 37.2 µM, > 100 µM and 17 µM, respectively.

`CC(=O)[O-].[Zn].c1ccc(/C(=N\Nc2ccccn2)c2ccccn2)cc1`: the TGI in the assay with M19-MEL melanoma came to 1.89 µM; in the assay on DLD-1 colon, 2.49 µM; with HCT-15 colon, 11.6 µM; with NCI-H23 lung, 19.3 µM; in the assay with SNB-78 CNS, 12.5 µM; with LXFL 529 NSCLC, 1.79 µM. Further, the TGI in the assay on HL-60(TB) leukemia was 0.0048 µM and 0.0138 µM; in the assay with KM20L2 colon, 1.75 µM; in the assay with DMS 273 small cell lung, 1.88 µM.

As for `NCc1c(C(N)=O)ncn1Cc1ccccc1`, the TGI with M19-MEL melanoma, in the assay on HCT-15 colon, in the assay with NCI-H23 lung, in the assay with SNB-78 CNS, in the assay with LXFL 529 NSCLC and in the assay on HL-60(TB) leukemia was > 100 µM in each case. Further, the TGI in the assay on KM20L2 colon and in the assay on DMS 273 small cell lung was > 100 µM each time.

These data come from PubChem BioAssay (NCI).
